# According to ChEMBL document CHEMBL1201862, “PubChem BioAssay data set” (2004):
#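 Cells were grown in 96-well plates and exposed to each compound for 48 hours at five concentrations; endpoints were interpolated linearly between bracketing concentrations, or set to the highest concentration if not reached. GI50 marks 50% less growth.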 Active and inactive are the calls of the source. Rule as the data show it: active = GI50 up to about 1.1 µM and inactive = higher.
# Legend:
# Assay in all cases: growth of human tumour cells (NCI), 48 h
# [1] = tested on: ACHN
# [2] = tested on: COLO 205
# [3] = tested on: EKVX
# [4] = tested on: HCT-15
# [5] = tested on: HL-60
# [6] = tested on: IGROV-1
# [7] = tested on: MOLT-4
# [8] = tested on: OVCAR-8
# [9] = tested on: RPMI-8226
# [10] = tested on: SF-295
# [11] = tested on: SK-MEL-2
# [12] = tested on: SK-OV-3
# [13] = tested on: SW-620
# [14] = tested on: TK-10
# [15] = tested on: U-251
# [16] = tested on: HOP-62
# [17] = tested on: SNB-75
# [18] = tested on: SR
# [19] = tested on: MCF7
# [20] = tested on: NCI/ADR-RES
Compound,GI50 [1],GI50 [2],GI50 [3],GI50 [4] [µM],GI50 [5],GI50 [6],GI50 [7],GI50 [8],GI50 [9],GI50 [10],GI50 [11],GI50 [12],GI50 [13],GI50 [14],GI50 [15],GI50 [16],GI50 [17],GI50 [18],GI50 [19],GI50 [20]
COc1ccc(/C(Cl)=C(\CN(C)C)c2ccc(OC)c(OC)c2)cc1OC,> 100 µM (inactive),> 100 µM (inactive),> 100 µM (inactive),> 100,21.2 µM (inactive),> 100 µM (inactive),> 100 µM (inactive),> 100 µM (inactive),> 100 µM (inactive),> 100 µM (inactive),55.6 µM (inactive),> 100 µM (inactive),> 100 µM (inactive),> 100 µM (inactive),> 100 µM (inactive),,,,,
O=C(Nc1ccc(Cl)cc1)c1cc2cc(/N=N/c3ccccc3Cl)ccc2oc1=O,6.3 µM (inactive),34.1 µM (inactive),25.5 µM (inactive),2.74,2.14 µM (inactive),19 µM (inactive),2.58 µM (inactive),13.4 µM (inactive),4.76 µM (inactive),28.7 µM (inactive),18.1 µM (inactive),46.9 µM (inactive),18.1 µM (inactive),33.3 µM (inactive),14.2 µM (inactive),26.9 µM (inactive),24 µM (inactive),15.8 µM (inactive),,
CCCC[S+]([O-])CC(CO)NC(=O)/C=C/c1c(C)[nH]c(=O)[nH]c1=O (centres undefined),,16.7 µM (inactive),8.47 µM (inactive),31.8,7.23 µM (inactive),7.29 µM (inactive),8.3 µM (inactive),6.73 µM (inactive),9.02 µM (inactive),8.38 µM (inactive),6.34 µM (inactive),10.7 µM (inactive),16.5 µM (inactive),,4.03 µM (inactive),8.93 µM (inactive),6.85 µM (inactive),,8.67 µM (inactive),12.4 µM (inactive)
O=C(Nc1cccc([N+](=O)[O-])c1)C(=O)C(C(=O)c1ccccc1F)C1OC(=O)C2C=CC=CC21 (centres undefined),49.4 µM (inactive),35.2 µM (inactive),41 µM (inactive),27.5,20 µM (inactive),53.8 µM (inactive),32 µM (inactive),30.3 µM (inactive),23.8 µM (inactive),43.9 µM (inactive),30.3 µM (inactive),41.3 µM (inactive),52.1 µM (inactive),> 100 µM (inactive),22.3 µM (inactive),50.9 µM (inactive),28.7 µM (inactive),7.06 µM (inactive),,
S=c1sc2c(s1)SC(c1ccccc1)CS2 (centres undefined),,> 100 µM (inactive),> 100 µM (inactive),> 100,> 51.3 µM (inactive),> 100 µM (inactive),> 100 µM (inactive),> 100 µM (inactive),> 100 µM (inactive),25.8 µM (inactive),> 100 µM (inactive),> 100 µM (inactive),> 100 µM (inactive),,> 100 µM (inactive),> 90.8 µM (inactive),> 45 µM (inactive),,> 100 µM (inactive),> 52 µM (inactive)
COc1cc([N+](=O)[O-])ccc1N1C(=O)C2c3[nH]c4ccccc4c3C3CCC(C(C)(C)C)CC3C2C1=O (centres undefined),> 100 µM (inactive),> 100 µM (inactive),33.4 µM (inactive),> 100,> 100 µM (inactive),> 100 µM (inactive),> 100 µM (inactive),29 µM (inactive),> 100 µM (inactive),,94.8 µM (inactive),> 100 µM (inactive),> 100 µM (inactive),> 100 µM (inactive),9.79 µM (inactive),7.43 µM (inactive),,> 100 µM (inactive),> 100 µM (inactive),22.3 µM (inactive)
CCOC(=O)C1=C(C)NC(=O)N([N+](=O)[O-])C1c1ccccc1C(F)(F)F (centres undefined),> 100 µM (inactive),> 100 µM (inactive),,55.2,55.2 µM (inactive),> 100 µM (inactive),> 100 µM (inactive),69.7 µM (inactive),23.4 µM (inactive),57.7 µM (inactive),> 100 µM (inactive),> 100 µM (inactive),52.6 µM (inactive),98.2 µM (inactive),69 µM (inactive),70.6 µM (inactive),,31.8 µM (inactive),52.6 µM (inactive),34.1 µM (inactive)
CSc1nc(NC2OCC(OC(C)=O)C(OC(C)=O)C2OC(C)=O)c(/N=C(\C)C(C)=O)c(=O)[nH]1 (centres undefined),> 100 µM (inactive),> 100 µM (inactive),> 100 µM (inactive),> 100,> 100 µM (inactive),> 100 µM (inactive),> 100 µM (inactive),> 100 µM (inactive),> 100 µM (inactive),> 100 µM (inactive),> 100 µM (inactive),,> 100 µM (inactive),> 100 µM (inactive),> 100 µM (inactive),,> 100 µM (inactive),> 100 µM (inactive),,
COc1ccc([C@H]2c3cc4c(cc3OC(O)(CO)[C@H]2C(=O)O)OCO4)c(OC)c1.COc1ccc([C@H]2c3cc4c(cc3OC3(O)COC(=O)[C@@H]23)OCO4)c(OC)c1 (some centres undefined),> 100 µM (inactive),> 100 µM (inactive),> 100 µM (inactive),37.6,45.6 µM (inactive),> 100 µM (inactive),61.5 µM (inactive),> 100 µM (inactive),41.9 µM (inactive),> 100 µM (inactive),> 100 µM (inactive),> 100 µM (inactive),> 100 µM (inactive),> 100 µM (inactive),41.9 µM (inactive),> 100 µM (inactive),43.5 µM (inactive),56 µM (inactive),,
COS(=O)c1cc(Cl)cc(Cl)c1O (centres undefined),> 100 µM (inactive),,> 100 µM (inactive),,> 100 µM (inactive),,> 100 µM (inactive),,,,> 100 µM (inactive),81.7 µM (inactive),,> 100 µM (inactive),> 100 µM (inactive),> 100 µM (inactive),87.7 µM (inactive),> 100 µM (inactive),,
O=Nn1c2ccccc2c2cc([N+](=O)[O-])ccc21,14.1 µM (inactive),34.3 µM (inactive),11.2 µM (inactive),22.3,> 100 µM (inactive),15.7 µM (inactive),14.1 µM (inactive),14.6 µM (inactive),13.3 µM (inactive),15.2 µM (inactive),36.3 µM (inactive),16.1 µM (inactive),13.7 µM (inactive),15.4 µM (inactive),16.4 µM (inactive),12.3 µM (inactive),7.23 µM (inactive),,22.9 µM (inactive),20.2 µM (inactive)
O=C(Nc1ccc2[nH]c3c(-c4ccccc4)nccc3c2c1)c1ccccc1[N+](=O)[O-],3.94 µM (inactive),3.45 µM (inactive),3.22 µM (inactive),1.53,3.48 µM (inactive),5.4 µM (inactive),2.22 µM (inactive),8.11 µM (inactive),1.61 µM (inactive),1.64 µM (inactive),4.09 µM (inactive),,5.06 µM (inactive),4.18 µM (inactive),2.96 µM (inactive),,2.47 µM (inactive),1.85 µM (inactive),,
COC(=O)C(C)NP(=O)(N1CC1)N1CC1 (centres undefined),27.9 µM (inactive),> 100 µM (inactive),> 100 µM (inactive),> 100,32.7 µM (inactive),> 100 µM (inactive),40.3 µM (inactive),> 100 µM (inactive),> 100 µM (inactive),92.5 µM (inactive),> 100 µM (inactive),> 100 µM (inactive),> 100 µM (inactive),> 100 µM (inactive),> 100 µM (inactive),,> 100 µM (inactive),,,
CCOC(=O)Cc1cnc(NC(NC(=O)CC)(C(F)(F)F)C(F)(F)F)s1,> 100 µM (inactive),,> 100 µM (inactive),> 100,> 100 µM (inactive),,> 100 µM (inactive),,> 100 µM (inactive),,> 100 µM (inactive),> 100 µM (inactive),,> 100 µM (inactive),> 100 µM (inactive),> 100 µM (inactive),> 100 µM (inactive),> 100 µM (inactive),> 100 µM (inactive),
COc1cc(/N=N\c2cccc(S(=O)(=O)O)c2)ccc1/N=N\c1ccc(/C=C/c2ccc(-n3on3-c3ccc(/C=C/c4ccc(/N=N/c5ccc(/N=N\c6cccc(S(=O)(=O)O)c6)cc5OC)cc4S(=O)(=O)O)c(S(=O)(=O)O)c3)cc2S(=O)(=O)O)c(S(=O)(=O)O)c1,,> 100 µM (inactive),> 100 µM (inactive),> 100,> 80 µM (inactive),> 100 µM (inactive),> 100 µM (inactive),> 100 µM (inactive),> 100 µM (inactive),> 100 µM (inactive),> 100 µM (inactive),> 100 µM (inactive),> 100 µM (inactive),,> 100 µM (inactive),> 100 µM (inactive),91.8 µM (inactive),,> 100 µM (inactive),> 100 µM (inactive)
COc1cc(C2c3cc4c(cc3[C@@H](Nc3ccc(Oc5ccccc5)cc3)C3COC(=O)[C@H]23)OCO4)cc(OC)c1O (some centres undefined),,1.5 µM (inactive),> 39.7 µM (inactive),1.3,0.362 µM (active),4.38 µM (inactive),0.329 µM (active),4.5 µM (inactive),1.08 µM (active),1.27 µM (inactive),> 29.9 µM (inactive),4.93 µM (inactive),2.07 µM (inactive),,2.36 µM (inactive),0.851 µM (active),,,0.4 µM (active),9.02 µM (inactive)
